Measurements published in US12448394B2, “Heterocyclic pyrazole derivatives as type III receptor tyrosine kinase inhibitors” (DEVELOPMENT CENTER FOR BIOTECHNOLOGY, priority 2019, dated 2025).
pIC50: −log10 of the molar value.

These molecules were tested against T1, FLT3-D835Y mutant kinase (Homo sapiens, UniProt P36888, D835Y) (assay: FLT3-D835Y mutant kinase assay (AlphaScreen)). Conditions: read-out: Ranking of IC50 values, FLT3-D835Y.
T1 construct: purchased SignalChem
T1 sequence (P36888 27-993 D835Y): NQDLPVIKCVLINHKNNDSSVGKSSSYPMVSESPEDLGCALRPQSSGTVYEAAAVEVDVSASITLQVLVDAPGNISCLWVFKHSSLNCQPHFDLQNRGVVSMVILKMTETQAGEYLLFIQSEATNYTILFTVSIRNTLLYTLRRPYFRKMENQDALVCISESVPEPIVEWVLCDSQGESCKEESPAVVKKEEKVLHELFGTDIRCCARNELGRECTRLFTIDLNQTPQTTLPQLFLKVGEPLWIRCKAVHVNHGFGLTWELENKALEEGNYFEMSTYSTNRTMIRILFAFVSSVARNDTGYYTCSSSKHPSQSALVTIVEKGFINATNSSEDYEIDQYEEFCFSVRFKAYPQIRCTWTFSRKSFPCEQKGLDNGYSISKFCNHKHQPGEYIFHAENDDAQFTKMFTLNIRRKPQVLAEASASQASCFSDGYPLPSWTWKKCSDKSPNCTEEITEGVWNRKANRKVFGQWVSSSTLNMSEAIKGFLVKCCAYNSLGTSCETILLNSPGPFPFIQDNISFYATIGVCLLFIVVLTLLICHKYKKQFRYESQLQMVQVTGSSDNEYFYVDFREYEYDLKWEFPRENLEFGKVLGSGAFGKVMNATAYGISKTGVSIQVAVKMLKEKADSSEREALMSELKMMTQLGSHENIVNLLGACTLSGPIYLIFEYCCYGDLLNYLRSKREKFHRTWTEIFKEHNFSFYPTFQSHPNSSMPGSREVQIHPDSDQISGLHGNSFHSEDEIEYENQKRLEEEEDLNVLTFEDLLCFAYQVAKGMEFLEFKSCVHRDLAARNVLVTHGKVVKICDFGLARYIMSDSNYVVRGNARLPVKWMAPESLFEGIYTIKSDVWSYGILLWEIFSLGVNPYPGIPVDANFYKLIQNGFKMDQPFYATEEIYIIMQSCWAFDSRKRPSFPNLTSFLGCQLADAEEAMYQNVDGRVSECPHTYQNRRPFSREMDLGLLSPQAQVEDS
Format: biochemical
Summary of the method: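 AlphaScreen readout of biotin-poly(Glu4:Tyr1) phosphorylation by 1 ng recombinant FLT3-D835Y. Conditions were 10 μM ATP, 10 mM MgCl2, MOPS pH 7.0, 30 min at 30 °C, EDTA stop. Compounds were serially diluted in duplicate to derive IC50.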

Row | pIC50 | SMILES
1 | 8.00 to 9.00 | Cc1cc(CN2CCOCC2)ccc1-c1cc2c(s1)Cc1c(-c3ccc4cnn(C)c4c3)n[nH]c1-2 [Compound 91, 4-(3-methyl-4-(3-(1-methyl-1H-indazol-6-yl)-1,4-dihydrothieno [2′,3′:4,5]cyclopenta [1,2-c]pyrazol-6-yl)benzyl)morpholine]
2 | > 9.00 | CN1CCN(c2ccc(-c3cc4c(s3)Cc3c(-c5ccc6cnn(C)c6c5)n[nH]c3-4)cn2)CC1 [Compound 85, 3-(1-methyl-1H-indazol-6-yl)-6-(6-(4-methyl-piperazin-1-yl)pyridin-3-yl)-1,4-dihydrothieno [2′,3′:4,5]cyclopenta [1,2-c]pyrazole]
3 | 8.00 to 9.00 | Cn1nnc2ccc(-c3n[nH]c4c3Cc3sc(-c5ccc(CN6CCOCC6)cc5)cc3-4)cc21 [Compound 89, 4-(4-(3-(1-methyl-1H-benzo[d][1,2,3]triazol-6-yl)-1,4-dihydrothieno [2′,3′:4,5]cyclopenta [1,2-c]pyrazol-6-yl)benzyl)morpholine]
4 | 8.00 to 9.00 | CN(C)Cc1ccc(-c2cc3c(s2)Cc2c(-c4ccc5cnn(C)c5c4)n[nH]c2-3)cn1 [Compound 93, N,N-dimethyl-1-(5-(3-(1-methyl-1H-indazol-6-yl)-1,4-dihydrothieno [2′,3′:4,5]cyclopenta [1,2-c]pyrazol-6-yl)pyridin-2-yl)methanamine]
5 | 8.00 to 9.00 | Cn1ncc2ccc(-c3n[nH]c4c3Cc3sc(-c5ccc(CN6CCOCC6)cc5OC(F)(F)F)cc3-4)cc21 [Compound 90, 4-(4-(3-(1-methyl-1H-indazol-6-yl)-1,4-dihydro-thieno[2′,3′:4,5]cyclopenta [1,2-c]pyrazol-6-yl)-3-(trifluoromethoxy)benzyl) morpholine]
6 | > 9.00 | COc1ccc(-c2cc3c(s2)Cc2c(-c4ccc5cnn(C)c5c4)n[nH]c2-3)cn1 [Compound 4, 6-(6-methoxypyridin-3-yl)-3-(1-methyl-1H-indazol-6-yl)-1,4-dihydrothieno [2′,3′:4,5]cyclopenta[1,2-c] pyrazole]
7 | 8.00 to 9.00 | CN(C)Cc1ccc(-c2cc3c(s2)Cc2c(-c4ccc5cnn(C)c5c4)n[nH]c2-3)cc1 [Compound 94, N,N-dimethyl-1-(4-(3-(1-methyl-1H-indazol-6-yl)-1,4-dihydrothieno [2′,3′:4,5]cyclopenta [1,2-c]pyrazol-6-yl)phenyl)methanamine]
8 | > 9.00 | CN1CCN(c2cc(-c3cc4c(s3)Cc3c(-c5ccc6cnn(C)c6c5)n[nH]c3-4)ccn2)CC1 [Compound 87, 3-(1-methyl-1H-indazol-6-yl)-6-(2-(4-methyl-piperazin-1-yl)pyridin-4-yl)-1,4-dihydrothieno [2′,3′:4,5]cyclopenta [1,2-c]pyrazole]
9 | 8.00 to 9.00 | Cn1ncc2ccc(-c3n[nH]c4c3Cc3sc(-c5ccc(CN6CCOCC6)c(F)c5F)cc3-4)cc21 [Compound 88, 4-(2,3-difluoro-4-(3-(1-methyl-1H-indazol-6-yl)-1,4-dihydrothieno [2′,3′:4,5]cyclopenta [1,2-c]pyrazol-6-yl)benzyl)morpholine]
10 | 8.00 to 9.00 | Cc1n[nH]c2cc(-c3n[nH]c4c3Cc3sc(-c5ccc(CN6CCOCC6)cc5)cc3-4)ccc12 [Compound 81, 4-(4-(3-(3-methyl-1H-indazol-6-yl)-1,4-dihydro-thieno[2′,3′:4,5]cyclopenta [1,2-c]pyrazol-6-yl)benzyl)morpholine]
11 | > 9.00 | CN1CCN(Cc2ccc(-c3cc4c(s3)Cc3c(-c5ccc6cn[nH]c6c5)n[nH]c3-4)cc2)CC1 [Compound 83, 3-(1H-indazol-6-yl)-6-(4-((4-methylpiperazin-1-yl)methyl)phenyl)-1,4-dihydrothieno[2′,3′:4,5] cyclopenta[1,2-c]pyrazole]
12 | 8.00 to 9.00 | Cn1ncc2ccc(-c3n[nH]c4c3Cc3sc(-c5ccnc(Cl)c5)cc3-4)cc21 [Compound 86, 6-(2-chloropyridin-4-yl)-3-(1-methyl-1H-indazol-6-yl)-1,4-dihydrothieno [2′,3′:4,5]cyclopenta [1,2-c]pyrazole]
13 | > 9.00 | CN1CCN(Cc2ccc(-c3cc4c(s3)Cc3c(-c5ccc6cnn(C)c6c5)n[nH]c3-4)cc2)CC1 [Compound 84, 3-(1-methyl-1H-indazol-6-yl)-6-(4-((4-methylpiperazin-1-yl)methyl)phenyl)-1,4-dihydrothieno [2′,3′:4,5]cyclopenta [1,2-c]pyrazole]
14 | > 9.00 | Cn1ncc2ccc(-c3n[nH]c4c3Cc3sc(-c5ccc(N)nc5)cc3-4)cc21 [Compound 92, 5-(3-(1-methyl-1H-indazol-6-yl)-1,4-dihydro-thieno[2′,3′:4,5]cyclopenta [1,2-c]pyrazol-6-yl) pyridin-2-amine]
15 | 8.00 to 9.00 | Cn1ncc2ccc(-c3n[nH]c4c3Cc3sc(-c5ccc(N6CCOCC6)nc5)cc3-4)cc21 [Compound 82, 4-(5-(3-(1-methyl-1H-indazol-6-yl)-1,4-dihydro-thieno[2′,3′:4,5]cyclopenta [1,2-c]pyrazol-6-yl)pyridin-2-yl)morpholine]
